Where “and” joins values, the source holds several entries; their conditions need not be identical. Identical values can stand only once. Toxic doses and inconclusive results are not listed. Cut-off read from the data, not from the text of the source: active = T/C of 150% or more; inactive = T/C below 125%.
Tested on: L1210 leukemia ip in BDF1 mice, survival T/C
Test: NCI In Vivo Anticancer Drug Screen. Data for tumor model L1210 Leukemia (intraperitoneal) in B6D2F1 (BDF1) mice
Settings: endpoint: mean survival time, higher = longer survival
Summary of the method: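 Antitumor effect is assessed in tumor-bearing animals. Survival in the compound arm is compared with a vehicle-dosed control arm and expressed as their quotient.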

[1] = dose: 100.0 mg/kg/injection, schedule: Q04DX003 (ip), vehicle: saline
[2] = dose: 100.0 mg/kg/injection, schedule: Q04DX002 (ip), vehicle: Klucel (hydroxypropylcellulose) (HPC)
[3] = dose: 200.0 mg/kg/injection, schedule: Q04DX002 (ip), vehicle: Klucel (hydroxypropylcellulose) (HPC)
[4] = dose: 400.0 mg/kg/injection, schedule: Q04DX002 (ip), vehicle: Klucel (hydroxypropylcellulose) (HPC)
[5] = dose: 100.0 mg/kg/injection, schedule: Q01DX009 (ip), vehicle: Klucel (hydroxypropylcellulose) (HPC)
[6] = dose: 100.0 mg/kg/injection, schedule: Q04DX003 (ip), vehicle: Klucel (hydroxypropylcellulose) (HPC)
[7] = dose: 200.0 mg/kg/injection, schedule: Q01DX009 (ip), vehicle: Klucel (hydroxypropylcellulose) (HPC)
[8] = dose: 200.0 mg/kg/injection, schedule: Q04DX003 (ip), vehicle: Klucel (hydroxypropylcellulose) (HPC)
[9] = dose: 400.0 mg/kg/injection, schedule: Q04DX003 (ip), vehicle: Klucel (hydroxypropylcellulose) (HPC)

Measured: T/C

O=C1N/C(=N\OCc2ccccc2)CC(NOCc2ccccc2)N1C1OC(CO)C(O)C1O (stereo unspecified)
inactive: [1] 92 % of control | dose: 200.0 mg/kg/injection, schedule: Q04DX003 (ip), vehicle: saline 92 % of control

Nc1ccc(S(=O)(=O)Nc2ccccn2)cc1
inactive: [2] 102 % of control | [3] 98 % of control | [4] 98 % of control

O=C1NNC(=O)NN1
inactive: dose: 50.0 mg/kg/injection, schedule: Q01DX009 (ip), vehicle: Klucel (hydroxypropylcellulose) (HPC) 97 % of control | [5] 103 % of control | [6] 100 % of control and 101 % of control | [7] 105 % of control | [8] 95 % of control | [9] 94 % of control

CC1(C)CN(C(C)(C)C)CC(C)(C)C(=O)C1=O
inactive: dose: 50.0 mg/kg/injection, schedule: Q01DX001 (ip), vehicle: saline sonified 91 % of control | dose: 100.0 mg/kg/injection, schedule: Q01DX001 (ip), vehicle: saline sonified 98 % of control | dose: 200.0 mg/kg/injection, schedule: Q01DX001 (ip), vehicle: saline sonified 87 % of control

NC(=O)c1ccc(NC(=O)/C=C/C(=O)Nc2ccc(C(N)=O)cn2)nc1
inactive: dose: 1.0 mg/kg/injection, schedule: Q01DX001 (ip), vehicle: saline 100 % of control | dose: 1.0 mg/kg/injection, schedule: Q01DX Z (ip), vehicle: saline 101 % of control and 105 % of control and 113 % of control | dose: 2.0 mg/kg/injection, schedule: Q01DX001 (ip), vehicle: saline 100 % of control | dose: 2.0 mg/kg/injection, schedule: Q01DX Z (ip), vehicle: saline 87 % of control | dose: 4.0 mg/kg/injection, schedule: Q01DX001 (ip), vehicle: saline 100 % of control | dose: 4.0 mg/kg/injection, schedule: Q01DX Z (ip), vehicle: saline 99 % of control | dose: 5.0 mg/kg/injection, schedule: Q01DX001 (ip), vehicle: saline 107 % of control | dose: 5.0 mg/kg/injection, schedule: Q04DX003 (ip), vehicle: saline 107 % of control | dose: 8.0 mg/kg/injection, schedule: Q01DX001 (ip), vehicle: saline 102 % of control | dose: 8.0 mg/kg/injection, schedule: Q01DX Z (ip), vehicle: saline 107 % of control and 91 % of control | dose: 10.0 mg/kg/injection, schedule: Q01DX001 (ip), vehicle: saline 98 % of control | dose: 11.25 mg/kg/injection, schedule: Q01DX009 (ip), vehicle: saline 93 % of control | dose: 13.0 mg/kg/injection, schedule: Q04DX003 (ip), vehicle: acetone 104 % of control | dose: 13.0 mg/kg/injection, schedule: Q04DX003 (ip), vehicle: saline 109 % of control | dose: 20.0 mg/kg/injection, schedule: Q01DX001 (ip), vehicle: saline 104 % of control | dose: 20.0 mg/kg/injection, schedule: Q04DX003 (ip), vehicle: acetone 109 % of control | dose: 20.0 mg/kg/injection, schedule: Q04DX003 (ip), vehicle: saline 109 % of control | dose: 30.0 mg/kg/injection, schedule: Q04DX003 (ip), vehicle: acetone 98 % of control | dose: 30.0 mg/kg/injection, schedule: Q04DX003 (ip), vehicle: saline 109 % of control | dose: 45.0 mg/kg/injection, schedule: Q04DX003 (ip), vehicle: saline 88 % of control

C/C=C(/C(=O)O)c1ccccc1
inactive: [6] 109 % of control | [8] 88 % of control | [9] 94 % of control

NC(=O)NN=C(CS)CS
inactive: dose: 0.5 mg/kg/injection, schedule: Q01DX015 (ip), vehicle: carboxymethylcellulose (CMC) 93 % of control | dose: 1.0 mg/kg/injection, schedule: Q01DX015 (ip), vehicle: carboxymethylcellulose (CMC) 98 % of control | dose: 2.0 mg/kg/injection, schedule: Q01DX015 (ip), vehicle: carboxymethylcellulose (CMC) 96 % of control | dose: 4.0 mg/kg/injection, schedule: Q01DX015 (ip), vehicle: carboxymethylcellulose (CMC) 98 % of control and 104 % of control | dose: 5.0 mg/kg/injection, schedule: Q01DX001 (ip), vehicle: other 97 % of control | dose: 8.0 mg/kg/injection, schedule: Q01DX015 (ip), vehicle: carboxymethylcellulose (CMC) 98 % of control | dose: 10.0 mg/kg/injection, schedule: Q01DX001 (ip), vehicle: other 97 % of control | dose: 16.0 mg/kg/injection, schedule: Q01DX015 (ip), vehicle: carboxymethylcellulose (CMC) 98 % of control | dose: 20.0 mg/kg/injection, schedule: Q01DX001 (ip), vehicle: other 94 % of control | dose: 25.0 mg/kg/injection, schedule: Q04DX003 (ip), vehicle: Klucel (hydroxypropylcellulose) (HPC) 104 % of control | dose: 32.0 mg/kg/injection, schedule: Q01DX015 (ip), vehicle: carboxymethylcellulose (CMC) 98 % of control | dose: 40.0 mg/kg/injection, schedule: Q01DX001 (ip), vehicle: other 97 % of control | dose: 50.0 mg/kg/injection, schedule: Q04DX003 (ip), vehicle: Klucel (hydroxypropylcellulose) (HPC) 101 % of control | dose: 80.0 mg/kg/injection, schedule: Q01DX001 (ip), vehicle: other 95 % of control | [6] 101 % of control

CCCCC/C(=C\c1ccccc1)C1OCC(CCl)O1 (stereo unspecified)
inactive: dose: 222.0 mg/kg/injection, schedule: Q01DX Z (ip), vehicle: saline 100 % of control | dose: 333.0 mg/kg/injection, schedule: Q01DX Z (ip), vehicle: saline 100 % of control | dose: 500.0 mg/kg/injection, schedule: Q01DX Z (ip), vehicle: saline 109 % of control

NC1=NC(CCc2ccccc2)N(c2cccc(Cl)c2)C(N)=N1 (stereo unspecified)
inactive: dose: 6.25 mg/kg/injection, schedule: Q01DX001 (ip), vehicle: saline 104 % of control | dose: 12.5 mg/kg/injection, schedule: Q01DX001 (ip), vehicle: saline 98 % of control | dose: 25.0 mg/kg/injection, schedule: Q01DX001 (ip), vehicle: saline 106 % of control

CCCCOC(=O)c1nc[nH]c1[N+](=O)[O-]
inactive: dose: 100.0 mg/kg/injection, schedule: Q01DX001 (ip), vehicle: other 93 % of control | dose: 200.0 mg/kg/injection, schedule: Q01DX001 (ip), vehicle: other 101 % of control | dose: 400.0 mg/kg/injection, schedule: Q01DX001 (ip), vehicle: other 101 % of control

O=S=Nc1cc(Cl)c(Cl)cc1Cl
inactive: dose: 25.0 mg/kg/injection, schedule: Q04DX002 (ip), vehicle: saline 103 % of control | dose: 50.0 mg/kg/injection, schedule: Q04DX002 (ip), vehicle: saline 100 % of control | dose: 100.0 mg/kg/injection, schedule: Q04DX002 (ip), vehicle: saline 95 % of control and 109 % of control

NC1CC[N-]CC1.NC1CC[N-]CC1.[Cl][Pt+2]([Cl])([Cl])[Cl]
inactive: dose: 12.5 mg/kg/injection, schedule: Q01DX009 (ip), vehicle: saline 101 % of control | dose: 25.0 mg/kg/injection, schedule: Q01DX009 (ip), vehicle: saline 101 % of control | dose: 50.0 mg/kg/injection, schedule: Q01DX009 (ip), vehicle: saline 95 % of control | dose: 50.0 mg/kg/injection, schedule: Q04DX003 (ip), vehicle: saline 106 % of control | dose: 100.0 mg/kg/injection, schedule: Q01DX009 (ip), vehicle: saline 101 % of control | [1] 104 % of control

O=C(Nc1ccccc1Cl)OC/C=C/c1ccccc1
inactive: [5] 103 % of control | [2] 88 % of control | [7] 96 % of control | [3] 88 % of control | dose: 400.0 mg/kg/injection, schedule: Q01DX009 (ip), vehicle: Klucel (hydroxypropylcellulose) (HPC) 108 % of control | [4] 100 % of control
